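How tested: cells in 96-well plates exposed to compound for 48 hours at five concentrations. GI50 = concentration required for 50% inhibition of growth. TGI: total growth inhibition.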
Columns and labels:
Experiment in all cases: NCI anticancer screen, dose series, 48 h
786-0 renal = tested on: 786-0 renal
A498 renal = tested on: A498 renal
A549 NSCLC = tested on: A549 NSCLC
ACHN renal = tested on: ACHN renal
BT-549 breast = tested on: BT-549 breast
CAKI-1 renal = tested on: CAKI-1 renal
CCRF-CEM leukemia = tested on: CCRF-CEM leukemia
COLO 205 colon = tested on: COLO 205 colon
DU-145 prostate = tested on: DU-145 prostate
EKVX NSCLC = tested on: EKVX NSCLC
HCC-2998 colon = tested on: HCC-2998 colon
HCT-116 colon = tested on: HCT-116 colon
HCT-15 colon = tested on: HCT-15 colon
HL-60(TB) leukemia = tested on: HL-60(TB) leukemia
HOP-62 NSCLC = tested on: HOP-62 NSCLC
HOP-92 NSCLC = tested on: HOP-92 NSCLC
HS 578T breast = tested on: HS 578T breast
HT29 colon = tested on: HT29 colon
IGROV1 ovarian = tested on: IGROV1 ovarian
K-562 leukemia = tested on: K-562 leukemia
KM12 colon = tested on: KM12 colon
LOX IMVI melanoma = tested on: LOX IMVI melanoma
M14 melanoma = tested on: M14 melanoma
MALME-3M melanoma = tested on: MALME-3M melanoma
MCF7 breast = tested on: MCF7 breast
MDA-MB-231 breast = tested on: MDA-MB-231 breast
MDA-MB-435 = tested on: MDA-MB-435
MOLT-4 leukemia = tested on: MOLT-4 leukemia
NCI-H226 lung = tested on: NCI-H226 lung

SMILES: COCCNc1ccc2ncc(C#Cc3cncc(C(=O)Nc4ccc(CN5CCN(C)CC5)c(C(F)(F)F)c4)c3)n2n1
- GI50 (786-0 renal): 236 nM
- TGI (786-0 renal): 939 nM
- GI50 (A498 renal): 221 nM
- TGI (A498 renal): 474 nM
- GI50 (A549 NSCLC): 208 nM
- TGI (A549 NSCLC): 1120 nM
- GI50 (ACHN renal): 157 nM
- TGI (ACHN renal): 870 nM
- GI50 (BT-549 breast): 434 nM
- TGI (BT-549 breast): 1210 nM
- GI50 (CAKI-1 renal): 113 nM
- TGI (CAKI-1 renal): 327 nM
- GI50 (CCRF-CEM leukemia): 24.9 nM
- TGI (CCRF-CEM leukemia): 6680 nM
- GI50 (COLO 205 colon): 120 nM
- TGI (COLO 205 colon): 294 nM
- GI50 (DU-145 prostate): 251 nM
- TGI (DU-145 prostate): 1540 nM
- GI50 (EKVX NSCLC): 186 nM
- TGI (EKVX NSCLC): 807 nM
- GI50 (HCC-2998 colon): 315 nM
- TGI (HCC-2998 colon): 1090 nM
- GI50 (HCT-116 colon): 80.4 nM
- TGI (HCT-116 colon): 387 nM
- GI50 (HCT-15 colon): 180 nM
- TGI (HCT-15 colon): 715 nM
- GI50 (HL-60(TB) leukemia): 134 nM
- TGI (HL-60(TB) leukemia): 566 nM
- GI50 (HOP-62 NSCLC): 242 nM
- TGI (HOP-62 NSCLC): 1370 nM
- GI50 (HOP-92 NSCLC): 50.3 nM
- TGI (HOP-92 NSCLC): 229 nM
- GI50 (HS 578T breast): 77.9 nM
- TGI (HS 578T breast): 452 nM
- GI50 (HT29 colon): 198 nM
- TGI (HT29 colon): 954 nM
- GI50 (IGROV1 ovarian): 123 nM
- TGI (IGROV1 ovarian): 639 nM
- GI50 (K-562 leukemia): 9.89 nM
- TGI (K-562 leukemia): 540 nM
- GI50 (KM12 colon): 5 nM
- TGI (KM12 colon): 1200 nM
- GI50 (LOX IMVI melanoma): 97.3 nM
- TGI (LOX IMVI melanoma): 338 nM
- GI50 (M14 melanoma): 125 nM
- TGI (M14 melanoma): 408 nM
- GI50 (MALME-3M melanoma): 181 nM
- TGI (MALME-3M melanoma): 711 nM
- GI50 (MCF7 breast): 139 nM
- TGI (MCF7 breast): 933 nM
- GI50 (MDA-MB-231 breast): 82.3 nM
- TGI (MDA-MB-231 breast): 333 nM
- GI50 (MDA-MB-435): 142 nM
- TGI (MDA-MB-435): 843 nM
- GI50 (MOLT-4 leukemia): 51.4 nM
- TGI (MOLT-4 leukemia): 1510 nM
- GI50 (NCI-H226 lung): 147 nM

Source: PubChem BioAssay (NCI)
